This passage reports IC50 results from patent US6962937B2, “Imidazolidine derivatives, their preparation and their use” (Aventis Pharma Deutschland GmbH, priority 2001, dated 2005).

In this assay the target is T1, interaction between VCAM-1 and VLA-4 (Homo sapiens, UniProt P05556+P13612).
T1 construct: supplied in their natural form as surface molecules on human U937 cells; host or cells: U937 cells (endogenous VLA-4); The partner hVCAM-1(1-3)-IgG was made in house in transfected COS cells (ATCC CRL1651) and used as culture supernatant
T1 sequence (P13612 34-1032): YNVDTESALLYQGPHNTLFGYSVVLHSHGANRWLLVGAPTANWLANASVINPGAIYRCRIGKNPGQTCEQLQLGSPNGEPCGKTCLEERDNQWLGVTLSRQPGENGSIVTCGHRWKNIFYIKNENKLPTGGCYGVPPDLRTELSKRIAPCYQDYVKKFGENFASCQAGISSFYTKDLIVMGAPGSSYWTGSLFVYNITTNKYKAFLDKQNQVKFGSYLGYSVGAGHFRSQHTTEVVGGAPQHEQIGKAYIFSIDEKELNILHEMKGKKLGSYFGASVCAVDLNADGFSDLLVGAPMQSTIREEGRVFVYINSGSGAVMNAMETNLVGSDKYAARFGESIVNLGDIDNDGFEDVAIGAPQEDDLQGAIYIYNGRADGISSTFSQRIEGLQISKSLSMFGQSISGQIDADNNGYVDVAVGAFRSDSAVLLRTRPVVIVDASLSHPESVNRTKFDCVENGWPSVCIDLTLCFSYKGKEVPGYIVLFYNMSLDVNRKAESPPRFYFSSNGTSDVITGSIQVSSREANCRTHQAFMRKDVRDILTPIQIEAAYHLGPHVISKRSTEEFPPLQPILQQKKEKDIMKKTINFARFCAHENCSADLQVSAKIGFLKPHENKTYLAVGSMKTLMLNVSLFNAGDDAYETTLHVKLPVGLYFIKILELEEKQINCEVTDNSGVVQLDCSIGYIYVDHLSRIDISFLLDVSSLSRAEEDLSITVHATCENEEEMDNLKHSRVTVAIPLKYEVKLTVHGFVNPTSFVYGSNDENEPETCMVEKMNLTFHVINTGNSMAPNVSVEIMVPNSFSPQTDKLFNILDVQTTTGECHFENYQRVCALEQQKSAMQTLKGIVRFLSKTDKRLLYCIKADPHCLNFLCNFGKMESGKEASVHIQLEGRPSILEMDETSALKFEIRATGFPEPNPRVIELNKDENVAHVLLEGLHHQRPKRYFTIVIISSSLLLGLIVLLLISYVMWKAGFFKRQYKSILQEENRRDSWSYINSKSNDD
T1 sequence (P05556 21-798): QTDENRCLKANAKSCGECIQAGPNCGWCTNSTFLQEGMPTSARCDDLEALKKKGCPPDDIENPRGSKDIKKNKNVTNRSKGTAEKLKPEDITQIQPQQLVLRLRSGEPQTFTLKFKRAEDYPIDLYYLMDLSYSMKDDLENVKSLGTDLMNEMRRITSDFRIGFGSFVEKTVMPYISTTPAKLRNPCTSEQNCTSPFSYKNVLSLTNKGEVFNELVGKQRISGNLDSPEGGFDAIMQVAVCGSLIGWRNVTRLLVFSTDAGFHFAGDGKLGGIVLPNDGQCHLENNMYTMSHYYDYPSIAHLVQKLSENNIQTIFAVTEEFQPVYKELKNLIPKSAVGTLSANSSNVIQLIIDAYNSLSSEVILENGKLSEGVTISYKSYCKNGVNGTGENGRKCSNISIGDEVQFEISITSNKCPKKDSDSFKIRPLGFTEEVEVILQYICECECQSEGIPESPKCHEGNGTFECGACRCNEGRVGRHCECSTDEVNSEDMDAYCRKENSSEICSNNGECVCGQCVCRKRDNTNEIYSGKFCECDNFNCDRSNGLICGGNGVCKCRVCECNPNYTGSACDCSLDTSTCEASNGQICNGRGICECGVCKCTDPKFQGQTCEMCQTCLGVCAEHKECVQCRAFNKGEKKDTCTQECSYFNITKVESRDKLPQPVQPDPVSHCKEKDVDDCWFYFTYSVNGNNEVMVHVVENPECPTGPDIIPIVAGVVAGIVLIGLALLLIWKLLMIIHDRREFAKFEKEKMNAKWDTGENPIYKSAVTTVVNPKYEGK
In words: U937/VCAM-1 cell adhesion test (adhesion of U937 cells to hVCAM-1 (1-3)-IgG). It is filed as cell-based. The following applies: inhibition of adhesion of human U937 cells (ATCC CRL 1593) to hVCAM-1 (1-3)-IgG. From the text:
A) U937/VCAM-1 Cell Adhesion Test (Assay for Measuring the Adhesion of U937 Cells (ATCC CRL 1593) to hVCAM-1 (1-3)-IqG)
The assay described below which is specific for the interaction between VCAM-1 and VLA-4, is used as the method for testing the activity of the compounds of the formula I on this interaction. The cellular binding partners, that is the VLA-4 integrins, are supplied in their natural form as surface molecules on human U937 cells (ATCC CRL 1593) which belong to the leukocyte group. The specific binding partners employed are recombinantly prepared soluble fusion proteins which consist of the extracytoplasmic domain of human VCAM-1 and the constant region of a human immunoglobulin of the IgG1 subclass.
1. Preparation of Human VCAM-1 (1-3)-IqG and Human CD4-IgG
A gene construct for expressing the extracellular domain of human VCAM-1 linked to the gene sequence for the heavy chain of human immunoglobulin IgG1 (hinge, CH2 and CH3 regions) (from Dr. Brian Seed, Massachusetts General Hospital, Boston, USA; cf. Damle and Aruffo, Proc. Natl. Acad. Sci. USA, 1991, 88:6403) was employed. The soluble fusion protein hVCAM-1 (1-3)-IgG contained the three aminoterminal extracellular immunoglobulin-like domains of human VCAM-1 (Damle and Aruffo, Proc. Natl. Acad. Sci. USA, 1991, 88:6403). CD4-IgG (Zettimeissl et al., DNA and Cell Biology, 1990, 9:347) was used as the fusion protein for negative controls. The recombinant proteins were expressed as soluble proteins following the DEAE/dextran-mediated transfection of DNA into COS cells (ATCC CRL1651) using standard procedures (Ausubel et a., Current protocols in molecular biology, John Wiley & Sons, Inc., 1994).
2. Assay for Measuring the Adhesion of U937 Cells to hVCAM-1 (1-3)-IgG […]
2.6 U937 cells were incubated in Fc receptor blocking buffer for 20 minutes and then pipetted in at a concentration of 1×10^6/mL and in a quantity of 100 μL per well (final volume: 125 μL/well). […]

Where a name gives a salt, the structure may show the parent alone.

In turn, `COc1cc(CN2C(=O)N([C@H](CN[C@@H](CC(=O)O)c3ccccc3)CC3CC3)C(=O)C2(C)C)ccc1NC(=O)Nc1ccccc1C` [Example 6, (S)-3-((S)-2-(4,4-Dimethyl-3-(4-(3-(2-methylphenyl)ureido)-3-methoxybenzyl)-2,5-dioxoimidazolidin-1-yl)-3-cyclopropylpropylamino)-3-phenylpropionic acid hydrochloride] yielded an IC50 of 66.2 nM.
`COc1cc(CN2C(=O)N([C@H](CN[C@@H](CC(=O)O)c3ccc(OC)c(OC)c3)CC3CC3)C(=O)C2(C)C)ccc1NC(=O)Nc1ccccc1C` [Example 14, (S)-3-((S)-2-(4,4-Dimethyl-3-(4-(3-(2-methylphenyl)ureido)-3-methoxybenzyl)-2,5-dioxoimidazolidin-1-yl)-3-cyclopropylpropylamino)-3-(3,4-dimethoxyphenyl)propionic acid hydrochloride] displayed a half-maximal inhibitory concentration (IC50) of 8.2 nM.
The compound `COc1cc(CN2C(=O)N([C@H](CN[C@@H](CC(=O)O)c3ccc4c(c3)OCO4)CC3CC3)C(=O)C2(C)C)ccc1NC(=O)Nc1ccccc1C` [Example 17, (S)-3-((S)-2-(4,4-Dimethyl-3-(4-(3-(2-methylphenyl)ureido)-3-methoxybenzyl)-2,5-dioxoimidazolidin-1-yl)-3-cyclopropylpropylamino)-3-(3,4-methylenedioxyphenyl)propionic acid hydrochloride] yielded an IC50 of 24.4 nM.
